The values that follow come from ChEMBL document CHEMBL1165868, “Synthesis and antimicrobial activity of cholic acid hydrazone analogues” (2010).

Common to all, as to format: functional
One test has as its system Pseudomonas aeruginosa. Briefly: Antimicrobial activity against Pseudomonas aeruginosa after 24 hrs.
The subject of a further test is Priestia megaterium. Put plainly: Antimicrobial activity against Bacillus megaterium after 24 hrs.
In a further test the test system is Staphylococcus aureus. Put plainly: Antimicrobial activity against Staphylococcus aureus after 24 hrs.
The test system of the next test is Escherichia coli. Put plainly: Antimicrobial activity against Escherichia coli after 24 hrs.
The test system of another test is Enterococcus faecalis. Put plainly: Antimicrobial activity against Enterococcus faecalis after 24 hrs.
A further test has as its system Klebsiella aerogenes. Put plainly: Antimicrobial activity against Enterobacter aerogenes after 24 hrs.

Converted amounts (≈) assume the structure as drawn. The source made the active and inactive calls. No cut-off for these calls is given here.

On to `C[C@H](CCC(=O)N/N=C/c1ccco1)[C@H]1CC[C@H]2[C@@H]3[C@H](O)C[C@@H]4C[C@H](O)CC[C@]4(C)[C@H]3C[C@H](O)[C@]12C`, for which the MIC entry in the test on Pseudomonas aeruginosa, in the test with Staphylococcus aureus, with Escherichia coli, with Enterococcus faecalis and with Klebsiella aerogenes was “inactive” throughout. For the same molecule, the lowest concentration to inhibit growth with Priestia megaterium (MIC) was 31.2 µg/mL (≈ 62.4 µM).
As to `C[C@H](CCC(=O)N/N=C/c1cccs1)[C@H]1CC[C@H]2[C@@H]3[C@H](O)C[C@@H]4C[C@H](O)CC[C@]4(C)[C@H]3C[C@H](O)[C@]12C`, the MIC result with Pseudomonas aeruginosa, in the test on Escherichia coli and with Klebsiella aerogenes was “inactive” throughout. Besides, the MIC in the test on Priestia megaterium worked out at 15.6 µg/mL (≈ 30.2 µM); against Staphylococcus aureus it was 62.5 µg/mL (≈ 121 µM); in the test with Enterococcus faecalis, 31.2 µg/mL (≈ 60.5 µM).
Turning to `N[C@@H](C(=O)N[C@@H]1C(=O)N2C(C(=O)O)=C(Cl)CS[C@H]12)c1ccccc1` [CEFACLOR ANHYDROUS], the MIC entry in the test on Pseudomonas aeruginosa and with Escherichia coli was “inactive” throughout. Moreover, the MIC against Priestia megaterium stood at 31.2 µg/mL (≈ 85 µM); against Staphylococcus aureus it was 31.2 µg/mL (≈ 85 µM); against Enterococcus faecalis, 31.2 µg/mL (≈ 85 µM); in the test with Klebsiella aerogenes, 7.82 µg/mL (≈ 21.3 µM).
As for `C[C@H](CCC(=O)N/N=C/c1ccc(F)cc1)[C@H]1CC[C@H]2[C@@H]3[C@H](O)C[C@@H]4C[C@H](O)CC[C@]4(C)[C@H]3C[C@H](O)[C@]12C`, the MIC entry with Pseudomonas aeruginosa, in the test on Escherichia coli and with Klebsiella aerogenes was “inactive” in each case. In addition, the minimal inhibitory concentration (MIC) in the test on Priestia megaterium amounted to 31.2 µg/mL (≈ 59.1 µM); in the test on Staphylococcus aureus, 31.2 µg/mL (≈ 59.1 µM); in the test with Enterococcus faecalis, 62.5 µg/mL (≈ 118 µM).
With `C[C@H](CCC(=O)N/N=C/c1ccc(Cl)cc1)[C@H]1CC[C@H]2[C@@H]3[C@H](O)C[C@@H]4C[C@H](O)CC[C@]4(C)[C@H]3C[C@H](O)[C@]12C`, the MIC result in the test with Pseudomonas aeruginosa and with Klebsiella aerogenes was “inactive” each time. In addition, the MIC against Priestia megaterium was 31.2 µg/mL (≈ 57.3 µM); in the test on Staphylococcus aureus it was 62.5 µg/mL (≈ 115 µM); against Escherichia coli, 3.91 µg/mL (≈ 7.17 µM); in the test with Enterococcus faecalis it was 1.96 µg/mL (≈ 3.6 µM).
With `C[C@H](CCC(=O)N/N=C/c1ccccc1Br)[C@H]1CC[C@H]2[C@@H]3[C@H](O)C[C@@H]4C[C@H](O)CC[C@]4(C)[C@H]3C[C@H](O)[C@]12C`, the MIC entry with Pseudomonas aeruginosa, in the test with Staphylococcus aureus and in the test on Klebsiella aerogenes was “inactive” throughout. Moreover, the MIC in the test with Priestia megaterium amounted to 31.2 µg/mL (≈ 53 µM); in the test on Escherichia coli, 7.81 µg/mL (≈ 13.2 µM); in the test with Enterococcus faecalis it was 1.96 µg/mL (≈ 3.32 µM).
As for `C[C@H](CCC(=O)N/N=C/c1cccc(Cl)c1)[C@H]1CC[C@H]2[C@@H]3[C@H](O)C[C@@H]4C[C@H](O)CC[C@]4(C)[C@H]3C[C@H](O)[C@]12C`, the MIC result in the test with Pseudomonas aeruginosa and in the test on Klebsiella aerogenes was “inactive” throughout. The MIC against Priestia megaterium worked out at 31.2 µg/mL (≈ 57.3 µM); with Staphylococcus aureus, 31.2 µg/mL (≈ 57.3 µM); with Escherichia coli it was 3.91 µg/mL (≈ 7.17 µM); in the test on Enterococcus faecalis it was 1.96 µg/mL (≈ 3.6 µM).
`C[C@H](CCC(=O)N/N=C/c1ccc(Br)cc1)[C@H]1CC[C@H]2[C@@H]3[C@H](O)C[C@@H]4C[C@H](O)CC[C@]4(C)[C@H]3C[C@H](O)[C@]12C`: the MIC result in the test with Pseudomonas aeruginosa and with Klebsiella aerogenes was “inactive” throughout. Besides, the MIC is 7.82 µg/mL (≈ 13.3 µM) against Priestia megaterium, 62.5 µg/mL (≈ 106 µM) in the test with Staphylococcus aureus, 3.91 µg/mL (≈ 6.63 µM) with Escherichia coli and 3.91 µg/mL (≈ 6.63 µM) in the test on Enterococcus faecalis.
Regarding `COc1ccc(OC)c(/C=N/NC(=O)CC[C@@H](C)[C@H]2CC[C@H]3[C@@H]4[C@H](O)C[C@@H]5C[C@H](O)CC[C@]5(C)[C@H]4C[C@H](O)[C@]23C)c1`, the MIC entry in the test with Pseudomonas aeruginosa, with Staphylococcus aureus, with Escherichia coli and in the test on Klebsiella aerogenes was “inactive” throughout. For the same molecule, the MIC against Priestia megaterium came to 31.2 µg/mL (≈ 54.8 µM); with Enterococcus faecalis it was 15.6 µg/mL (≈ 27.4 µM).
As to `COc1cccc(/C=N/NC(=O)CC[C@@H](C)[C@H]2CC[C@H]3[C@@H]4[C@H](O)C[C@@H]5C[C@H](O)CC[C@]5(C)[C@H]4C[C@H](O)[C@]23C)c1OC`, the MIC result in the test on Pseudomonas aeruginosa, in the test with Staphylococcus aureus and in the test with Klebsiella aerogenes was “inactive” each time. Besides, the MIC against Priestia megaterium amounted to 31.2 µg/mL (≈ 54.8 µM); with Escherichia coli, 3.91 µg/mL (≈ 6.85 µM); in the test with Enterococcus faecalis it was 15.6 µg/mL (≈ 27.4 µM).
For `Cc1ccc(/C=N/NC(=O)CC[C@@H](C)[C@H]2CC[C@H]3[C@@H]4[C@H](O)C[C@@H]5C[C@H](O)CC[C@]5(C)[C@H]4C[C@H](O)[C@]23C)cc1`, the MIC entry in the test with Pseudomonas aeruginosa, in the test with Priestia megaterium and with Klebsiella aerogenes was “inactive” throughout. Also, the results for the MIC in the test with Staphylococcus aureus, with Escherichia coli and in the test on Enterococcus faecalis were 31.2 µg/mL (≈ 59.6 µM), 7.81 µg/mL (≈ 14.9 µM) and 7.82 µg/mL (≈ 14.9 µM), respectively.
Consider `C[C@H](CCC(=O)N/N=C/c1ccc([N+](=O)[O-])cc1)[C@H]1CC[C@H]2[C@@H]3[C@H](O)C[C@@H]4C[C@H](O)CC[C@]4(C)[C@H]3C[C@H](O)[C@]12C`, for which the MIC entry in the test with Pseudomonas aeruginosa and in the test with Klebsiella aerogenes was “inactive” in each case. The MIC came to 31.2 µg/mL (≈ 56.2 µM) in the test with Priestia megaterium, 31.2 µg/mL (≈ 56.2 µM) against Staphylococcus aureus, 7.81 µg/mL (≈ 14.1 µM) in the test with Escherichia coli and 7.82 µg/mL (≈ 14.1 µM) against Enterococcus faecalis.
As for `C=CC1=C(C(=O)O)N2C(=O)[C@@H](NC(=O)/C(=N\OCC(=O)O)c3csc(N)n3)[C@H]2SC1` [CEFIXIME], the minimal inhibitory concentration (MIC) worked out at 19.5 µg/mL (≈ 43.1 µM) against Pseudomonas aeruginosa; 31.2 µg/mL (≈ 68.9 µM) against Staphylococcus aureus; 1.96 µg/mL (≈ 4.32 µM) against Escherichia coli; 31.2 µg/mL (≈ 68.9 µM) against Enterococcus faecalis; 31.2 µg/mL (≈ 68.9 µM) in the test on Klebsiella aerogenes. The MIC result with Priestia megaterium is “inactive”.
For the molecule `C[C@H](CCC(=O)N/N=C/c1ccccc1)[C@H]1CC[C@H]2[C@@H]3[C@H](O)C[C@@H]4C[C@H](O)CC[C@]4(C)[C@H]3C[C@H](O)[C@]12C`, the MIC entry in the test on Pseudomonas aeruginosa and in the test on Klebsiella aerogenes was “inactive” throughout. The MIC in the test with Priestia megaterium amounted to 31.2 µg/mL (≈ 61.2 µM); with Staphylococcus aureus, 62.5 µg/mL (≈ 122 µM); with Escherichia coli, 3.91 µg/mL (≈ 7.66 µM); in the test with Enterococcus faecalis it was 15.6 µg/mL (≈ 30.6 µM).
As to `C[C@H](CCC(=O)N/N=C/c1ccccc1O)[C@H]1CC[C@H]2[C@@H]3[C@H](O)C[C@@H]4C[C@H](O)CC[C@]4(C)[C@H]3C[C@H](O)[C@]12C`, the MIC result in the test with Pseudomonas aeruginosa, with Escherichia coli and in the test with Klebsiella aerogenes was “inactive” in each case. In addition, the MIC against Priestia megaterium is 31.2 µg/mL (≈ 59.3 µM); in the test on Staphylococcus aureus, 31.2 µg/mL (≈ 59.3 µM); against Enterococcus faecalis, 7.82 µg/mL (≈ 14.8 µM).
Turning to `C[C@H](CCC(=O)N/N=C/c1cc2ccccc2[nH]1)[C@H]1CC[C@H]2[C@@H]3[C@H](O)C[C@@H]4C[C@H](O)CC[C@]4(C)[C@H]3C[C@H](O)[C@]12C`, the MIC result in the test on Pseudomonas aeruginosa, in the test with Escherichia coli and in the test with Klebsiella aerogenes was “inactive” each time. Moreover, the figures for the MIC in the test on Priestia megaterium, in the test on Staphylococcus aureus and against Enterococcus faecalis were 15.6 µg/mL (≈ 28.4 µM), 31.2 µg/mL (≈ 56.8 µM) and 3.91 µg/mL (≈ 7.11 µM), respectively.
For the molecule `COc1ccc2[nH]cc(/C=N/NC(=O)CC[C@@H](C)[C@H]3CC[C@H]4[C@@H]5[C@H](O)C[C@@H]6C[C@H](O)CC[C@]6(C)[C@H]5C[C@H](O)[C@]34C)c2c1`, the MIC entry with Pseudomonas aeruginosa, in the test on Priestia megaterium, in the test with Staphylococcus aureus, in the test with Escherichia coli and with Klebsiella aerogenes was “inactive” each time. Moreover, the minimum inhibitory concentration (MIC) with Enterococcus faecalis amounted to 31.2 µg/mL (≈ 53.9 µM).
Take `C[C@H](CCC(=O)N/N=C/c1ccc(C#N)cc1)[C@H]1CC[C@H]2[C@@H]3[C@H](O)C[C@@H]4C[C@H](O)CC[C@]4(C)[C@H]3C[C@H](O)[C@]12C`: the MIC result with Pseudomonas aeruginosa and with Klebsiella aerogenes was “inactive” each time. For the same molecule, the MIC against Priestia megaterium stood at 31.2 µg/mL (≈ 58.3 µM); in the test with Staphylococcus aureus it was 31.2 µg/mL (≈ 58.3 µM); against Escherichia coli, 7.81 µg/mL (≈ 14.6 µM); against Enterococcus faecalis, 15.6 µg/mL (≈ 29.2 µM).
With `C[C@H](CCC(=O)N/N=C/c1ccc[nH]1)[C@H]1CC[C@H]2[C@@H]3[C@H](O)C[C@@H]4C[C@H](O)CC[C@]4(C)[C@H]3C[C@H](O)[C@]12C`, the MIC result in the test with Pseudomonas aeruginosa, in the test with Staphylococcus aureus, in the test with Escherichia coli, in the test on Enterococcus faecalis and in the test on Klebsiella aerogenes was “inactive” each time. For the same molecule, the MIC against Priestia megaterium amounted to 31.2 µg/mL (≈ 62.5 µM).
On to `C[C@H](CCC(=O)N/N=C/c1ccccn1)[C@H]1CC[C@H]2[C@@H]3[C@H](O)C[C@@H]4C[C@H](O)CC[C@]4(C)[C@H]3C[C@H](O)[C@]12C`, for which the MIC entry in the test with Pseudomonas aeruginosa, with Staphylococcus aureus, in the test on Enterococcus faecalis and in the test on Klebsiella aerogenes was “inactive” each time. In addition, the figures for the MIC against Priestia megaterium and in the test on Escherichia coli were 31.2 µg/mL (≈ 61.1 µM) and 7.81 µg/mL (≈ 15.3 µM), respectively.
For the molecule `COc1ccc(/C=N/NC(=O)CC[C@@H](C)[C@H]2CC[C@H]3[C@@H]4[C@H](O)C[C@@H]5C[C@H](O)CC[C@]5(C)[C@H]4C[C@H](O)[C@]23C)cc1`, the MIC entry in the test with Pseudomonas aeruginosa and with Klebsiella aerogenes was “inactive” each time. Besides, the minimal inhibitory concentration (MIC) against Priestia megaterium was found to be 31.2 µg/mL (≈ 57.8 µM); with Staphylococcus aureus, 62.5 µg/mL (≈ 116 µM); against Escherichia coli it was 7.81 µg/mL (≈ 14.4 µM); in the test with Enterococcus faecalis, 15.6 µg/mL (≈ 28.9 µM).
With `C[C@H](CCC(=O)N/N=C/c1ccc(Cl)c([N+](=O)[O-])c1)[C@H]1CC[C@H]2[C@@H]3[C@H](O)C[C@@H]4C[C@H](O)CC[C@]4(C)[C@H]3C[C@H](O)[C@]12C`, the MIC entry in the test with Pseudomonas aeruginosa and with Klebsiella aerogenes was “inactive” throughout. Moreover, the minimal inhibitory concentration (MIC) in the test with Priestia megaterium came to 31.2 µg/mL (≈ 53 µM); in the test with Staphylococcus aureus, 31.2 µg/mL (≈ 53 µM); against Escherichia coli it was 7.81 µg/mL (≈ 13.2 µM); with Enterococcus faecalis, 3.91 µg/mL (≈ 6.63 µM).
For `C[C@H](CCC(=O)NN)[C@H]1CC[C@H]2[C@@H]3[C@H](O)C[C@@H]4C[C@H](O)CC[C@]4(C)[C@H]3C[C@H](O)[C@]12C` [CHOLYLHYDRAZIDE], the MIC result in the test on Pseudomonas aeruginosa, in the test on Staphylococcus aureus, in the test on Escherichia coli and with Klebsiella aerogenes was “inactive” throughout. Further, the minimum inhibitory concentration (MIC) in the test on Priestia megaterium and in the test with Enterococcus faecalis was 31.2 µg/mL (≈ 73.9 µM) throughout.

Usually MIC stands for the least concentration at which growth counts as inhibited.
